Drawing on a melting point compilation (Tetko et al.; mined from patent text by program, amines drawn as free bases though some values may be those of a salt), this text covers melting point for 32 molecules.

Residues, ends and D or L forms follow the SMILES beside them. *: point of attachment. Boc = CC(C)(C)OC(=O)*; OBn = c1ccc(CO*)cc1; Bn = c1ccc(C*)cc1

As for `ClCc1coc(-c2cc3ccccc3o2)n1`, the melting point (as a rule, the temperature, or range, at which the solid turns liquid) lay in the range of 133 to 134 °C.

For `C[Si](C)(C)C#Cc1cn(C2CC(O)C(COC(c3ccccc3)(c3ccccc3)c3ccccc3)O2)c(=O)[nH]c1=O` (configuration not stated), the melting point is 104 °C.

`COC1(c2cc(F)cc(Sc3ccc4c(c3)n(C)c(=O)n4C)c2)CCOCC1` registered a melting point of 128 to 130 °C.

`CC(C)CC(NC(=O)C(Cc1ccc(OCc2ccccc2)cc1)NC(=O)OC(C)(C)C)C(=O)OCc1ccccc1` (configuration not stated) (Boc-Tyr(Bn)-Leu-OBn; configuration not given here) gave a melting point of 100 to 103 °C.

In turn, `CCCCCCCCCCCCCCCCn1nnc(C(C(=O)Nc2c(OC)cc(OC)cc2OC)c2ccccc2)n1` (configuration not stated) yielded a melting point of 134 to 135 °C.

`Nc1nc(N)c(CCCN(C(=O)C(F)(F)F)c2ccc(C(=O)O)cc2)c(=O)[nH]1` showed a melting point of 229 to 230 °C.

`O=c1[nH]c(NCCSCc2ccco2)ncc1Cc1cccnc1` showed a melting point of 136 to 139 °C.

As to `CCCN(CCCc1coc2c(OC)cccc12)C1COc2c(F)ccc(C(N)=O)c2C1` (configuration not stated), the melting point was 123 to 129 °C.

`CC(=O)C1CCC2C3CCC4CC(O)C(Br)CC4(C)C3CCC12C` (configuration not stated) displayed a melting point of 171 to 175 °C.

Take `COc1ccc(NN=C(Sc2ccc(OC)c(OC)c2)C(C)=O)cc1`: the melting point was 138 to 141 °C.

For `CCCCCCCCCCCCCCCCOCCSCCOC(=O)NCc1ccccn1`, the melting point lay within 55 to 56 °C.

`CCCCN(CCCC)CCCOc1ccc(C(=O)c2c(C)oc3ccc([N+](=O)[O-])cc23)cc1` registered a melting point of 63 °C.

Turning to `Cc1ncoc1-c1nc(-c2c(F)cccc2F)nn1C`, the melting point was in the range of 113 to 115 °C.

On to `CS(=O)(=O)c1ccc(-n2cc(-c3ccc(OC(F)(F)F)cc3)nc2-c2ccc(Cl)cc2)cc1`, for which the melting point is 95 to 97 °C.

Take `CCOC(=O)CC(=O)c1c(F)cc(Br)cc1F`: the melting point is 49 to 52 °C.

In the case of `COc1ccc(-c2sc3cc(OC)ccc3c2C(=O)O)cc1`, the melting point was in the range of 166 to 170 °C.

In turn, `O=C1[C@H]2CCC[C@H]2N(C(=O)CCCCCn2ccnc2)c2ccccc2N1Cc1ccccc1` (relative stereo) gave a melting point of 133 to 134 °C.

For `COCCOc1cccc2c(Nc3ccccc3C)c(C(=O)C(C)C)cnc12`, the melting point lay within 68 to 70 °C.

`O=C(O)c1c2c(nc3ccc(F)cc13)-c1cc(F)c(-c3ccc(F)cc3)cc1CCC2`: the melting point is > 300 °C.

Molecule `CC(CN(C)C)N1c2ccccc2Sc2ccc(C(=O)NCc3ccccc3F)cc21` (racemic) had a melting point of 130 °C.

For `COc1nc(C)n2nc(SCc3ccccc3)nc2c1Cl`, the melting point lay within 115 to 116 °C.

In the case of `CCCCc1nc(Cl)c(CC(=O)OC)n1Cc1ccc(NS(=O)(=O)C(F)(F)F)cc1`, the melting point lay within 154 to 157 °C.

Regarding `CSc1cc(C(=O)C(C#N)C(=O)C2CC2)ccc1C` (configuration not stated), the melting point fell in the range of 64.7 to 67.9 °C.

`COc1ccc(-c2cc(=O)n(C)c(=O)n2CC(O)CNC(C)(C)C)cc1OC` (configuration not stated) had a melting point of 123 to 125 °C.

On to `COc1cc(OC)cc(-c2nn(C(C)c3oc4ccccc4c(=O)c3-c3cccc(F)c3)c3ncnc(N)c23)c1` (configuration not stated), for which the melting point lay in the range of 224 to 227 °C.

In the case of `COC(=O)c1cc(O)cc(C(=O)OC)c1[N+](=O)[O-]`, the melting point was in the range of 183 to 186 °C.

The molecule `O=c1nc(Cc2ccccc2)nc2n(C3CCCC3)[nH]c(Cc3ccccc3)c1-2` gave a melting point of 204 to 206 °C.

Take `COc1cccc2c1nc(C(F)F)n2-c1nc(NC2CCN(C(=O)OC(C)(C)C)CC2)c([N+](=O)[O-])c(N2CCOCC2)n1`: the melting point was in the range of 229 to 231 °C.

On to `CC(C)N1C(=O)NC(c2ccc3ocnc3c2)c2cc3c(cc21)OCO3` (configuration not stated), for which the melting point was in the range of 84 to 86 °C.

Take `O=S(=O)(Nc1cc(Cl)c(Cl)cc1Cl)C(F)(F)F`: the melting point lay in the range of 104 to 106 °C.

Regarding `COc1ccccc1N1CCN(CCCc2ccc(C3CCC(=O)N3)cc2)CC1` (configuration not stated), the melting point was in the range of 109 to 111 °C.

The molecule `Cc1ccc2nc(-c3ccccc3)oc2c1` had a melting point of 93 °C.
